The values below come from patent US20250268887A1, “THERAPEUTIC USES OF BRADYKININ B2-RECEPTOR ANTAGONISTS” (Pharvaris GmbH, priority 2022, published 2025).

The nature of this data set: Elimination half-life. The conditions noted are these: human, in vivo.

Regarding `[2H][C@@](C)(NC(=O)COC(F)F)c1cc(F)cc(Cl)c1COc1cccc2c(-c3ncnn3C)cc(C)nc12` [PHA-022121, (S)-N-(1-deutero-1-(3-chloro-5-fluoro-2-((2-methyl-4-(1-methyl-1H-1,2,4-triazol-5-yl)quinolin-8-yloxy)methyl)phenyl)ethyl)-2-(difluoromethoxy)acetamide], the half-life is around 4 h.

Broadly, the half-life is how long it takes for the measured level to halve.
